Data from ChEMBL document CHEMBL4431297 (Medchemcomm, 2016).
Calls of active or inactive are those of the source. The rule behind the calls is not given here.

Experiments:
Type in all cases: protein-complex assay
[1] = test system: DNA gyrase (Escherichia coli), P0AES6+P0AES4 [UNDEFINED MUTATION]; test: Inhibition of Escherichia coli JMtacA/JMtacB DNA gyrase subunit A2B2 S83W mutant at 50 uM using relaxed pBR322 DNA as substrate incubated for 30 mins in presence of ATP by ethidium bromide staining based agarose gel electrophoresis
DNA gyrase [2] = target: DNA gyrase (Escherichia coli, UniProt P0AES4+P0AES6, S83W); test: (§1) Inhibition of Escherichia coli JMtacA/JMtacB DNA gyrase subunit A2B2 S83W mutant using relaxed pBR322 DNA as substrate incubated for 30 mins in presence of ATP by ethidium bromide staining based agarose gel electrophoresis
[3] = target: T1, DNA gyrase (Escherichia coli) (UniProt P0AES6+P0AES4); test: (§2) Inhibition of wild type Escherichia coli DNA gyrase subunit A2B2 using supercoiled pBR322 DNA as substrate assessed as stabilization of enzyme-DNA cleavage complex by measuring linear DNA bands at 10 to 100 uM incubated for 30 mins in presence of proteinase K/SDS and in absence of ATP by ethidium bromide staining based agarose gel electrophoresis
[4] = test system: DNA gyrase (Escherichia coli), P0AES6+P0AES4 [UNDEFINED MUTATION]; test: as §1
[5] = target: T1, DNA gyrase (Escherichia coli); test: Inhibition of wild type Escherichia coli DNA gyrase subunit A2B2 at 100 uM using relaxed pBR322 DNA as substrate incubated for 30 mins in presence of ATP by ethidium bromide staining based agarose gel electrophoresis
[6] = target: T1, DNA gyrase (Escherichia coli); test: as §2, with “1” for “10 to 100”
[7] = test system: DNA gyrase (Escherichia coli), P0AES6+P0AES4 [UNDEFINED MUTATION]; test: Inhibition of Escherichia coli JMtacA/JMtacB DNA gyrase subunit A2B2 S83W mutant at 50 to 300 uM using relaxed pBR322 DNA as substrate incubated for 30 mins in presence of ATP by ethidium bromide staining based agarose gel electrophoresis
[8] = test system: DNA gyrase (Escherichia coli), P0AES6+P0AES4 [UNDEFINED MUTATION]; test: Inhibition of Escherichia coli JMtacA/JMtacB DNA gyrase subunit A2B2 S83W mutant at 100 uM using relaxed pBR322 DNA as substrate incubated for 30 mins in presence of ATP by ethidium bromide staining based agarose gel electrophoresis
[9] = target: T1, DNA gyrase (Escherichia coli); test: as §2, with “at” for “at 10 to”
DNA gyrase [10] = target: DNA gyrase (Escherichia coli, UniProt P0AES4+P0AES6); test: Inhibition of wild type Escherichia coli DNA gyrase subunit A2B2 using relaxed pBR322 DNA as substrate incubated for 30 mins in presence of ATP by ethidium bromide staining based agarose gel electrophoresis
[11] = test system: DNA gyrase (Escherichia coli), P0AES6+P0AES4 [UNDEFINED MUTATION]; test: Inhibition of Escherichia coli JMtacA/JMtacB DNA gyrase subunit A2B2 S83W mutant at 25 uM using relaxed pBR322 DNA as substrate incubated for 30 mins in presence of ATP by ethidium bromide staining based agarose gel electrophoresis
[12] = target: T1, DNA gyrase (Escherichia coli); test: as §2, with “at 50” for “at 10”

Structure (SMILES): CC(=O)Nc1cc2ccccc2oc1=O
- inhibition [1]: inactive

Structure (SMILES): O=C(CCCCCCCCC(=O)N1CCN(c2cc3c(cc2F)c(=O)c(C(=O)O)cn3C2CC2)CC1)Nc1cc2ccccc2oc1=O
- IC50 (DNA gyrase [2]): 3 µM
- inhibition [3]: Active

Structure (SMILES): CC(=O)O[C@@H]1[C@@H](C)O[C@@H](c2ccc3c(c2O)[C@@H](O)[C@]24O[C@@]2(C3=O)[C@@]2(O)C(=O)C=C(C)C[C@@]2(O)C[C@@H]4O)C[C@H]1OC(=O)/C=C/C=C/C=C/C=C/C(=O)O
- IC50 (DNA gyrase [2]): 50 µM

Structure (SMILES): CCOC(=O)c1cn(C2CC2)c2cc(N3CCN(C(=O)CCCCCCCCC(=O)Nc4cc5ccccc5oc4=O)CC3)c(F)cc2c1=O
- inhibition [4]: inactive
- inhibition [5]: inactive

Structure (SMILES): CC(=O)O[C@@H]1[C@@H](C)O[C@@H](c2ccc3c(c2O)[C@@H](O)[C@]24O[C@@]2(C3=O)[C@@]2(O)C(=O)C=C(C)C[C@@]2(O)C[C@@H]4O)C[C@H]1OC(=O)/C=C/C=C/C=C/C=C/C(=O)Nc1c(O)c2ccc(O)c(Cl)c2oc1=O
- inhibition [6]: inactive

Structure (SMILES): Nc1cc2ccccc2oc1=O
- inhibition [7]: inactive

Structure (SMILES): CCOC(=O)c1cn(C2CC2)c2cc(N3CCN(C(=O)CCCCCCCCC(=O)OC)CC3)c(F)cc2c1=O
- inhibition [4]: inactive
- inhibition [5]: inactive

Structure (SMILES): O=C(CCCCCCCCC(=O)N1CCN(c2cc3c(cc2F)c(=O)c(C(=O)O)cn3C2CC2)CC1)Nc1ccccc1
- inhibition [8]: inactive
- inhibition [9]: Active

Structure (SMILES): CCOC(=O)c1cn(C2CC2)c2cc(N3CCNCC3)c(F)cc2c1=O [CIPROFLOXACIN ETHYL ESTER]
- inhibition [4]: Active
- IC50 (DNA gyrase [10]): 10 µM

Structure (SMILES): COC(=O)/C=C/C=C/C=C/C=C/C(=O)Nc1c(O)c2ccc(O)c(Cl)c2oc1=O
- IC50 (DNA gyrase [2]): 70 µM

Structure (SMILES): O=C(O)CCCCCCCCC(=O)N1CCN(c2cc3c(cc2F)c(=O)c(C(=O)O)cn3C2CC2)CC1
- inhibition [11]: inactive
- inhibition [12]: Active

Structure (SMILES): CCOC(=O)c1cn(C2CC2)c2cc(N3CCN(C(=O)CCCCCCCCC(=O)Nc4ccccc4)CC3)c(F)cc2c1=O
- inhibition [4]: inactive
- inhibition [5]: inactive
